For data set [1], the system named is A549/WT wild type human lung adenocarcinoma cell line. Description: Cell growth assay (SRB) in A549/WT. To be noted: for Ratio of IC50 in the presence of dipyridamole / IC50 in the absence of dipyridamole / Ratio of IC50 in the presence of, compared to in the absence of, dipyridamole: A549/WT; for Ratio of IC50 in the presence of dipyridamole / IC50 in the absence of dipyridamole: 4-N-acyl and 4-N-phosphoryl derivatives (Table 5); for IC50: Homo sapiens, A549, A549/WT; for Ratio of IC50 in the presence of, compared to in the absence of, dipyridamole: acetylated 4-N-acyl derivatives (Table 7). It is filed as cell-based. As for the experimental part:
(§1) Biological activities of the Gemcitabine derivative (which may be referred to as analogues) described above were evaluated with two assays: • 1. Cell growth assay using the SRB assay in cell lines A549/WT, SW1573/WT, PANC-01 and BXPC-3. • 2. MTT assay in human bladder cancer cell line T-24
(§2) The following cell lines were tested: • A549/WT —wild type human lung adenocarcinoma cell line (1) • SW1573/WT —wild type non-small lung human cell line (2), • PANC-01—human pancreatic cancer cell line (3) • BXPC-3 -epithelial human pancreatic adenocarcinoma cells (4).
(§3) Dipyridamole inhibits adenosine uptake by erythrocytes platelets and endothelial cells in vitro and in vivo. Thus, the present inventors recruited dipyridamole as an inhibitor of the nucleoside transporters of the tumour cells to observe the behaviour of the presently described Gemcitabine derivatives.
(§4) From the IC50 of each compound in the presence of dipyridamole, by dividing it with the IC50 of each compound in the absence of dipyridamole, the present inventors calculated a ratio that compared the efficacy of the analogous presence of dipyridamole.
(§5) Ratio=IC50 in the presence of dipyridamole/IC50 in the absence of dipyridamole • FIG. 10. Ratio of IC50 of 4-N-acyl and 4-N-phosphoryl derivatives in the presence of, compared to in the absence of, dipyridamole, in four cell lines

For data set [2], the system named is PANC-01 human pancreatic cancer cell line. Description: Cell growth assay (SRB) in PANC-01. The settings on record: for Ratio of IC50 in the presence of dipyridamole / IC50 in the absence of dipyridamole: 4-N-acyl and 4-N-phosphoryl derivatives (Table 5); for IC50: Homo sapiens, Pancreatic cancer cell; for Ratio of IC50 in the presence of, compared to in the absence of, dipyridamole: acetylated 4-N-acyl derivatives (Table 7). It is filed as cell-based. How it is done:
as §1, §2, §3, §4, §5

In data set [3] the test system is human bladder cancer cell line T-24. Description: MTT assay, cell viability of T-24 cells. To be noted: 100 μM; for inhibition of cell growth (cell viability, MTT), order of potency: 5000 cells/well; for cell viability (MTT), most potent derivatives: 10000 cells/well. It is filed as cell-based. As for the experimental part:
as §1
The cell viability of T-24 bladder cancer cells upon treatment with the Gemcitabine derivatives was evaluated using the MTT assay. T24 cancer cells were cultured in DMEM (Gibco) high glucose supplemented with 10% FBS and 1% Penicillin/Streptomycin (100 U/mL Penicillin and 100 μg/mL Streptomycin), at 37 ° C. in humidified atmosphere of 5% CO2.
For the MTT assay 5000 or 10000 cells were seeded in triplicates in 96-well plates. Stock solutions of each derivative were prepared in DMSO/EtOH (1:1 v/v). Then, the cells were treated and incubated with 100 μM of each compound for 24 or 48 hours. After the completion of the incubation time, 10 μL of MTT solution (5 mg/ml in PBS buffer) were added in each well and incubated for 4 hrs. Finally, to stop the reaction, the supernatant from each well was removed and 100 μL of stop mix solution (20% SDS in 50% dimethyl formamide in water) were added. The plate remained in darkness for 2 h and the absorbance was measured at 540 nm via a microplate ELISA reader (Awareness Technology Inc.) with a reference at 630 nm. The % cell viability for each compound was calculated relatively to the absorbance of the untreated cells (control).
Two sets of experiments were performed at concentrations of 100 μM, and the absorption of formazan was measured after 24 and 48 hours.
Another experiment was conducted with the MTT assay where the compounds were incubated for 48 hours at […] derivative concentration where the number of cells seeded per well was 10000.

The test system of data set [4] is BXPC-3 epithelial human pancreatic adenocarcinoma cells. Description: Cell growth assay (SRB) in BXPC-3. It is filed as cell-based. To be noted: for Ratio of IC50 in the presence of dipyridamole / IC50 in the absence of dipyridamole / Ratio of IC50 in the presence of, compared to in the absence of, dipyridamole: BXPC-3; for Ratio of IC50 in the presence of dipyridamole / IC50 in the absence of dipyridamole: 4-N-acyl and 4-N-phosphoryl derivatives (Table 5); for IC50: Homo sapiens, BXPC-3, BXPC-3; for Ratio of IC50 in the presence of, compared to in the absence of, dipyridamole: acetylated 4-N-acyl derivatives (Table 7). How it is done:
as §1, §2, §3, §4, §5

Data set [5] relates to SW1573/WT wild type non-small lung human cell line. Description: Cell growth assay (SRB) in SW1573/WT. Type of data set: cell-based. The settings on record: for IC50: Homo sapiens, SW1573, SW 1573/WT; for Ratio of IC50 in the presence of dipyridamole / IC50 in the absence of dipyridamole / Ratio of IC50 in the presence of, compared to in the absence of, dipyridamole: SW 1573/WT; for Ratio of IC50 in the presence of dipyridamole / IC50 in the absence of dipyridamole: 4-N-acyl and 4-N-phosphoryl derivatives (Table 5); for Ratio of IC50 in the presence of, compared to in the absence of, dipyridamole: acetylated 4-N-acyl derivatives (Table 7). As for the experimental part:
as §1, §2, §3, §4, §5

A short description of data set [6]: Photolysis under UV irradiation (absorption spectrum). It is filed as physicochemical. To be noted: 10 μM in MeOH, UV lamp at 366 nm for 240 minutes, room temperature. The text has this:
After ultraviolet irradiation at a specific photo-digested group wavelength in the range from 350 to 500 nm (or greater than 700 nm when utilising two photon excitation), the active form of the encapsulated molecule is released irreversibly. Photo-inclusion has often been performed in vitro for the spatio-temporal control of biological processes and the release of light-induced payload. […] The present inventors believe that this dual strategy is of great value for therapeutic applications while it requires non-invasive and space-time drug activation. In order to show this dual drug release mechanism, the present inventors performed photolysis experiments (FIG. 2).
The spectra of derivative 7 (10 μM) and Gemcitabine (5 μM) were recorded on a Perkin Elmer Lambda 25 spectrometer at room temperature. The samples were solubilized in MeOH grade HPLC grade and irradiated with UV lamp at 366 nm for 240 minutes. The present inventors noticed that in the range of 280-290 nm and 320-330 nm there is a decrease in the absorption intensity and at the same time there is an increase in intensity to 250-270 nm. […] This theory is supported by the increase in the band corresponding to Gemcitabine.

[7] abbreviates: 4-N-acyl and 4-N-phosphoryl derivatives (Table 4).
Where [8] appears, read: acetylated 4-N-acyl derivatives (Table 6).

As usually defined, the IC50 is the concentration needed to halve the response being measured. Turning to `O=C(Nc1ccn(C2OC(CO)C(O)C2(F)F)c(=O)n1)OCCl` (stereo not drawn) [Derivative 4], the “Ratio of IC50 in the presence of dipyridamole / IC50 in the absence of dipyridamole” value is on record as 6.3 in data set [1], 22 in data set [2], 4.5 in data set [4] and 10 in data set [5]. Moreover, the IC50 in data set [1] (setting [7]) stood at 100 nM; in data set [2] (setting [7]), 45 nM; in data set [4] (setting [7]) it was 100 nM; in data set [5] (setting [7]) it was 100 nM. Besides, the “inhibition of cell growth (cell viability, MTT), order of potency” value (“inhibition of cell growth” for short) in data set [3] (24 hours) is “greater potency than the parent drug Gemcitabine”; in data set [3] (48 hours) it was 17>4>11 and then Gemcitabine. Besides, the “cell viability (MTT), most potent derivatives” value (“cell viability (MTT)” for short) in data set [3] (48 hours) is given as “most potent”.
`COc1cc(COC(=O)Nc2ccn(C3OC(CO)C(O)C3(F)F)c(=O)n2)c([N+](=O)[O-])cc1OC` (stereo not drawn) [Derivative 7, (4,5-dimethoxy)-2-nitrobenzyl-(4-N-Gemcitabine) carbamate]: the “photolysis on irradiation (absorption spectrum over time)” value in data set [6] was “release of Gemcitabine”. Moreover, the “Ratio of IC50 in the presence of dipyridamole / IC50 in the absence of dipyridamole” value in data set [1] was found to be 14.2; in data set [2], 3.3; in data set [4], 13.9; in data set [5] it was 11. Moreover, the half-inhibitory concentration (IC50) is 460 nM in data set [1] (setting [7]), 1500 nM in data set [2] (setting [7]), 230 nM in data set [4] (setting [7]) and 440 nM in data set [5] (setting [7]).
Regarding `O=C(Nc1ccn(C2OC(CO)C(O)C2(F)F)c(=O)n1)OCc1cn(C2=CC3C=CC(O)=CC3OC2=O)nn1` (stereo not drawn) [Derivative 11, (1-(7-hydroxy-2-oxo-4a,8a-dihydro-2H-chromen-3-yl)-1H-1,2,3-triazol-4-yl) methyl-4-N-Gemcitabine carbamate], the “Ratio of IC50 in the presence of dipyridamole / IC50 in the absence of dipyridamole” value in data set [1] was 11; in data set [2], 4.6; in data set [4], 25; in data set [5], 11.9. The IC50 came out at 430 nM in data set [1] (setting [7]), 1600 nM in data set [2] (setting [7]), 200 nM in data set [4] (setting [7]) and 420 nM in data set [5] (setting [7]). The “inhibition of cell growth” value in data set [3] (24 hours) is “greater potency than the parent drug Gemcitabine”; in data set [3] (48 hours) it was 17>4>11 and then Gemcitabine. Besides, the “cell viability (MTT)” value in data set [3] (48 hours) is recorded as “most potent”.
In the case of `CCCCOC(=O)Nc1ccn(C2OC(COC(C)=O)C(OC(C)=O)C2(F)F)c(=O)n1` (stereo not drawn) [Derivative 14], the “Ratio of IC50 in the presence of, compared to in the absence of, dipyridamole” value (shortened to “Ratio of IC50 … in the absence of, dipyridamole”) in data set [1] worked out at 0.83; in data set [2] it was 0.9; in data set [4] it was 1.77; in data set [5], 1.4. The IC50 in data set [1] (setting [8]) worked out at 3100 nM; in data set [2] (setting [8]) it was 6500 nM; in data set [4] (setting [8]) it was 1350 nM; in data set [5] (setting [8]), 2800 nM. The “cell viability (MTT)” value in data set [3] (48 hours) was “most potent”.
On to `CC(=O)OCC1OC(n2ccc(NC(=O)OCCl)nc2=O)C(F)(F)C1OC(C)=O` (stereo not drawn) [Derivative 17], for which the “Ratio of IC50 … in the absence of, dipyridamole” value is reported as 2.4 in data set [1], 1.8 in data set [2] and 3.5 in data set [4]. Besides, the IC50 in data set [1] (setting [8]) is 2000 nM; in data set [2] (setting [8]), 700 nM; in data set [4] (setting [8]), 95 nM; in data set [5] (setting [8]), 140 nM. In addition, the “inhibition of cell growth” value in data set [3] (24 hours) is “greater potency than the parent drug Gemcitabine”; in data set [3] (48 hours), 17>4>11 and then Gemcitabine.
With `Nc1ccn([C@@H]2O[C@H](CO)[C@@H](O)C2(F)F)c(=O)n1` [Gemcitabine, 2′,2′-difluoro-2′-deoxycytidine, reference compound], the “Ratio of IC50 in the presence of dipyridamole / IC50 in the absence of dipyridamole” value in data set [1] came out at 15; in data set [2] it was 3.4; in data set [4], 26.6; in data set [5] it was 22.7. Besides, the “Ratio of IC50 … in the absence of, dipyridamole” value in data set [1] came to 18; in data set [2] it was 7.4; in data set [4], 24.3; in data set [5] it was 1. For the same molecule, the half-inhibitory concentration (IC50) in data set [1] (setting [7]) was found to be 18 nM; in data set [1] (setting [8]) it was 15 nM; in data set [2] (setting [7]), 52 nM; in data set [2] (setting [8]) it was 31 nM; in data set [4] (setting [7]), 9 nM; in data set [4] (setting [8]), 13 nM. In addition, the IC50 was 11 nM in data set [5] (setting [7]) and 9.6 nM in data set [5] (setting [8]). Besides, the “inhibition of cell growth” value in data set [3] (48 hours) is 17>4>11 and then Gemcitabine.

These data come from patent publication US20220296627A1, “Cytidine Derivatives and Methods of Forming Cytidine Derivatives” (Aenorasis Commercial Company of Pharmaceutical and Medical …, priority 2019, published 2022).
